These results are taken from ChEMBL document CHEMBL5352397, “Exploring gabosine and chlorogentisyl alcohol derivatives from a marine-derived fungus as EcGUS inhibitors with informatic assisted approaches” (Eur J Med Chem, 2022).

Assay [1] has as its target Beta-glucuronidase (Escherichia coli (strain K12)) (UniProt P05804). Nature of the assay: Inhibition of Escherichia coli beta-glucuronidase assessed as reduction of p-nitrophenol release using beta-PNPG as substrate at 10 uM incubated for 30 mins by Spectra max microplate reader analysis relative to control.
Assay [2] concerns the target T1, Beta-glucuronidase (Escherichia coli (strain K12), UniProt P05804). Briefly: Inhibition of Escherichia coli beta-glucuronidase assessed as reduction of p-nitrophenol release using beta-PNPG as substrate incubated for 30 mins by Spectra max microplate reader analysis.
The target in assay [3] is T1, Beta-glucuronidase. Briefly: Inhibition of Escherichia coli beta-glucuronidase assessed as inhibition constant using beta-PNPG as substrate incubated for 30 mins by Lineweaver-Burk plot analysis.
For a further assay, the system named is NAMALVA. Briefly: Antiproliferative activity against human NAMALVA cells assessed as cell viability at 20 uM incubated for 48 hrs by MTT assay. It is filed as functional. The note with it: read-out: Activity.
The nature of assay [4]: Antiproliferative activity against human U266B cells assessed as cell viability at 20 uM incubated for 48 hrs by MTT assay. It counts as functional. To be noted: read-out: Activity.
For assay [5], the target named is Beta-glucuronidase (Escherichia coli (strain K12)) (UniProt P05804). Nature of the assay: Inhibition of Escherichia coli beta-glucuronidase using beta-PNPG as substrate at 2 to 8 uM incubated for 30 mins by Lineweaver-Burk plot analysis. To be noted: dose 2-8 µM.
Assay [6] has the same target. Nature of the assay: Non-competitive inhibition of Escherichia coli beta-glucuronidase assessed as reduction of p-nitrophenol release using beta-PNPG as substrate at 10 uM incubated for 30 mins by Spectra max microplate reader analysis relative to control.
Assay [7] concerns the target T1, Beta-glucuronidase. Nature of the assay: Non-competitive inhibition of Escherichia coli beta-glucuronidase assessed as reduction of p-nitrophenol release using beta-PNPG as substrate incubated for 30 mins by Spectra max microplate reader analysis.
For assay [8], the target named is T1, Beta-glucuronidase. Briefly: Non-competitive inhibition of Escherichia coli beta-glucuronidase assessed as inhibition constant using beta-PNPG as substrate incubated for 30 mins by Lineweaver-Burk plot analysis.
Assay [9] concerns the target Beta-glucuronidase (Escherichia coli (strain K12)) (UniProt P05804). Briefly: Inhibition of Escherichia coli beta-glucuronidase using beta-PNPG as substrate at 50 to 100 uM incubated for 30 mins by Lineweaver-Burk plot analysis. To be noted: dose 50-100 µM.

Active and inactive are the calls of the source. The calls are words filed in the database; no cut-off is given here.

Sequence of Beta-glucuronidase (Escherichia coli (strain K12)) (P05804 whole entry, looked up): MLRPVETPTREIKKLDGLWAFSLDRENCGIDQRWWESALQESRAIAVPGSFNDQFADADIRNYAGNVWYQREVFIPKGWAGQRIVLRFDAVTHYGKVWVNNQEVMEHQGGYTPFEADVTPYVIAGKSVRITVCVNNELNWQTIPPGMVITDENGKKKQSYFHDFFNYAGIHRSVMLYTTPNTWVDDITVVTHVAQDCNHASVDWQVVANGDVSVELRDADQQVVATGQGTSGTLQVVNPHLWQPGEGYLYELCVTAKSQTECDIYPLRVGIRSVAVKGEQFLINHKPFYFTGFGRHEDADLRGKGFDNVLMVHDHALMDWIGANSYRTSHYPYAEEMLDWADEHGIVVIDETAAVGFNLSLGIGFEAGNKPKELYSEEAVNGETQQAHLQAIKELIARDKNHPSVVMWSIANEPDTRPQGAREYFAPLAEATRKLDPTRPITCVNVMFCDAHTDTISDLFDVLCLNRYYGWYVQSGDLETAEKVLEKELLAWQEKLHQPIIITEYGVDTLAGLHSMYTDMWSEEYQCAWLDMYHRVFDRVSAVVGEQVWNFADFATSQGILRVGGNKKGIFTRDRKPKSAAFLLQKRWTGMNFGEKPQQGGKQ
T1 sequence (P05804 whole entry): as the sequence (P05804 whole entry, looked up) above

On to `Cc1cccc(O)c1C(=O)O[C@@H]1C(=O)C(CO)=C[C@@H](O)[C@H]1O`, for which the inhibition in assay [1] amounted to 27.6%.
For `O=C(OCc1cc(O)cc(Cl)c1O)c1cnccc1O`, the inhibition in [1] turned out to be 87.9%. On Beta-glucuronidase [2], the half-maximal inhibitory concentration (IC50) is 1950 nM. Besides, on Beta-glucuronidase [3], the inhibition constant Ki turned out to be 1550 nM. Also, the viability at 20 µM was 39.4% in the assay on NAMALVA and 94.9% in assay [4].
The like results for `CC1=C[C@@H](O)[C@@H](O)[C@H](Cl)C1=O` were, in that order, 100%, 1010 nM, 670 nM, 113% and 105%.
As for `O=C1C(Cl)=C[C@H](O)[C@@H](O)[C@]12CCc1cc(O)cc(Cl)c1O2`, the inhibition in assay [1] is 49.9%.
For the compound `O=C1C(Cc2cc(O)cc(Cl)c2O)=C[C@H](O)[C@@H](O)[C@@]12CCc1cc(O)c(Cl)c(Cl)c1O2`, the inhibition in assay [1] came out at 98%. Moreover, the 50% inhibitory concentration (IC50) at Beta-glucuronidase [2] stood at 240 nM. For the same compound, the inhibition constant (Ki) on Beta-glucuronidase [3] is 1090 nM. Moreover, the viability at 20 µM stood at 83.9% with NAMALVA and 95% in assay [4]. The inhibition entry in assay [5] is “Active”.
For the compound `O=C1C(COCc2cc(O)cc(Cl)c2O)=C[C@@H](O)[C@@H](O)[C@@H]1Cl`, the inhibition in assay [1] amounted to 87.1%. Also, the IC50 on Beta-glucuronidase [2] was found to be 1910 nM. Also, the inhibitory constant (Ki) on Beta-glucuronidase [3] came out at 860 nM. Moreover, the figures for the viability at 20 µM (in the assay with NAMALVA; in assay [4]) were 65.1% and 105%, respectively.
On to `O=C(O)c1cc(=O)c2ccccc2[nH]1`, for which the inhibition in [1] was determined as 10.8%.
On to `CCCCOCC1=C[C@@H](O)[C@@H](O)[C@H](O)C1=O`, for which the inhibition in [1] came out at 39.3%.
For the compound `C[C@H]1C[C@H](OCc2cc(O)cc(Cl)c2O)[C@@H](O)C[C@H]1O`, the inhibition in assay [1] turned out to be 92.1%. The half-inhibitory concentration (IC50) at Beta-glucuronidase [2] came out at 640 nM. Also, the Ki at Beta-glucuronidase [3] was determined as 4270 nM. The viability at 20 µM in the assay on NAMALVA was 71.7%; in assay [4], 77.8%.
`O=C1C(Cl)=C[C@H](O)[C@H](O)[C@@]12CCc1cc(O)cc(Cl)c1O2`: the inhibition in assay [1] is 86.3%. Further, the half-inhibitory concentration (IC50) on Beta-glucuronidase [2] was 2150 nM. For the same compound, the Ki at Beta-glucuronidase [3] was 4430 nM. For the same compound, the viability at 20 µM in the assay with NAMALVA was -0.33%; in assay [4] it was 52.6%.
On to `Cc1cc2c(c(=O)o1)C[C@H]1[C@@H](O)[C@H](O)[C@H](O)[C@H]3c4c(cc(C)oc4=O)O[C@]31O2`, for which, in assay [1], the inhibition amounted to 5.16%.
For the compound `C[C@H]1C[C@H](O)[C@@H](O)C[C@H]1OCc1cc(O)cc(Cl)c1O`, the inhibition in assay [1] stood at 92.8%. The half-maximal inhibitory concentration (IC50) on Beta-glucuronidase [2] came out at 630 nM. In addition, the inhibition constant (Ki) at Beta-glucuronidase [3] worked out at 1640 nM. Besides, the viability at 20 µM in the assay on NAMALVA was found to be 71.6%; in assay [4], 115%.
In the case of `C[C@H]1C[C@H](O)[C@@H](OCc2cc(O)cc(Cl)c2O)C[C@H]1O`, the inhibition in assay [1] was found to be 91.8%. Also, the half-inhibitory concentration (IC50) at Beta-glucuronidase [2] amounted to 400 nM. For the same compound, on Beta-glucuronidase [3], the Ki came to 3470 nM. In addition, the results for the viability at 20 µM (in the assay on NAMALVA; in assay [4]) were -3.03% and 7.86%, respectively. Also, the inhibition entry in assay [5] was “Active”.
`Oc1cc(Cl)c(O)c(COCc2cc(O)cc(Cl)c2O)c1`: in [1], the inhibition came out at 101%. The 50% inhibitory concentration (IC50) at Beta-glucuronidase [2] amounted to 580 nM. For the same compound, the inhibition constant (Ki) at Beta-glucuronidase [3] is 710 nM. In addition, the values for the viability at 20 µM (with NAMALVA; in assay [4]) were 56.6% and 88.6%, respectively.
As to `Cc1cc(O)c(Cc2cc(O)cc(Cl)c2O)c(=O)o1`, in [1], the inhibition is 20.1%.
As to `Cc1cc2c(c(=O)o1)C[C@@H]1C(=O)C(Cl)=C[C@H](O)[C@H]1O2`, in assay [1], the inhibition stood at 55.1%.
Take `OCc1cc(O)cc(Cl)c1O`: in assay [6], the inhibition came out at 101%. The IC50 at Beta-glucuronidase [7] stood at 740 nM. For the same compound, on Beta-glucuronidase [8], the inhibition constant (Ki) came out at 580 nM. Moreover, the viability at 20 µM with NAMALVA worked out at 70.4%; in [4], 94.1%.
In the case of `O=c1[nH]cc(F)c(=O)[nH]1` [FLUOROURACIL], the figures for the viability at 20 µM (in the assay with NAMALVA; in assay [4]) were 11.3% and 0%, respectively.
Regarding `O=C1C(Cl)=C[C@H](O)[C@@H](O)[C@@]12CCc1cc(O)cc(Cl)c1O2`, the inhibition in [1] worked out at 96.5%. Also, the half-maximal inhibitory concentration (IC50) on Beta-glucuronidase [2] is 2830 nM. Further, the inhibition constant (Ki) at Beta-glucuronidase [3] came to 1160 nM. In addition, the viability at 20 µM in the assay with NAMALVA stood at 37%; in assay [4] it was 79.6%.
The like results for `CO[C@@H]1[C@@H](O)C=C(Cl)C(=O)[C@]12CCc1cc(O)cc(Cl)c1O2` were, in that order, 98.4%, 1420 nM, 2660 nM, 58.3% and 84.9%.
Take `COCc1cccc(Cl)c1O`: the inhibition in [1] was 7.73%.
As to `O=C(O)[C@@H](O)[C@H]1OC(=O)[C@H](O)[C@H]1O` [D-SACCHARIC ACID 1,4-LACTONE], the inhibition in [1] stood at 11.6%. The IC50 at Beta-glucuronidase [2] came to 56700 nM. Besides, the inhibition result in assay [9] is “Active”.
Consider `Cc1cc2c(c(=O)o1)C[C@H]1C(=O)[C@@H](O)[C@H](O)[C@H](O)[C@H]1O2`, for which, in [1], the inhibition is 25.6%.
On the same count and under the same terms, the result for `C[C@@H]1C[C@@H](O)[C@H](O[C@@H]2[C@@H](O)C=C(Cl)C(=O)[C@]23CCc2cc(O)cc(Cl)c2O3)C[C@@H]1O` reads 15.3%; that for `O=Cc1cc(O)cc(Cl)c1O`, 69%.
As for `CCC1=C[C@@H](O)[C@@H](O)[C@H](Cl)C1=O`, the inhibition in assay [6] is 99.1%. In addition, the half-maximal inhibitory concentration (IC50) at Beta-glucuronidase [7] turned out to be 1260 nM. In addition, the Ki at Beta-glucuronidase [8] was determined as 1260 nM. The viability at 20 µM in the assay on NAMALVA was determined as 79.2%; in assay [4], 96.3%.
`CCCCO[C@@H]1C(=O)C(C)=C[C@@H](O)[C@H]1O`: in [1], the inhibition turned out to be 86.5%. At Beta-glucuronidase [2], the half-inhibitory concentration (IC50) was 4610 nM. Also, the inhibition constant Ki at Beta-glucuronidase [3] was determined as 7320 nM. Besides, the viability at 20 µM was determined as 91.7% in the assay with NAMALVA and 109% in assay [4].
